In general, Kd refers to the constant that tells how readily two partners part at equilibrium.

In one assay the target is RNA Seq6 UGAAGGAAGGU
Nature of the assay: Fluorescence polarization (FP) binding assay, RNA Seq6. Here is the method: (§1) All synthetic DNA and RNA oligomers were purchased from Integrated DNA Technologies and reconstituted in nuclease-free water (Invitrogen #AM9932) at 1 mM. The concentration of the oligonucleotides at ˜0.1 mM was calibrated with the A260 value measured by a NanoDrop ND-1000 (Thermo, Waltham, MA, USA) and the predicted extinction coefficient (http://www.oligoevaluator.com) using Lamber-Beer's Law. The risdiplam analogues (1 mM in DMSO) were diluted in 2× assay buffer (40 mM HEPES, 200 mM NaCl for RNA; 40 mM HEPES, 200 mM NaCl, 1 mM MgCl2 for DNA) to make a 1 μM 2× working solution.
A 1:2 dilution series (8 points) of each oligonucleotide was prepared in 20-30 μL water to desired concentrations (i.e., 1-128 μM). 20-30 μL 2× working solution containing the 2× assay buffer and the small-molecule ligand was added to each oligonucleotide sample in 1:1 (v/v) and mixed by pipetting for 4 times. For fluorescence polarization measurement, 20 μL of the above 1× working solution was transferred into a 384-well, black, F-bottom microplates (Greiner Bio-One) in duplicates or triplicates. The plate was equilibrated at room temperature for 5 min before being read using a microplate reader (SYNERGY H1, BioTek; Excitation/Emission=360/460 nm) at 25° C. For compound SMN-C5, a competitive binding assay was employed to measure an apparent Kd. SMN-C5 was 1:2 serial diluted for 10 concentration points starting at 750 μM in DMSO. A mixture of SMN-C2 (0.5 μM) and DNA Seq6 (25 μM) in 1× assay buffer was prepared and incubated at room temperature for 10 minutes. 3 μL of SMN-C5 solution at each concentration was added to a 42 μL SMN-C2/DNA Seq6 mixture and incubated at room temperature for 10 minutes. The mixture was then transferred into a microplate (20 μL each well) in duplicates for fluorescence polarization readout. The experimental data were analyzed using Prism 8 software (Graphpad Software, San Diego, CA, USA).
On the technique in general: In fluorescence polarisation assays a small probe gives low polarisation when free and higher when bound to something large.

The next assay addresses DNA Seq11 TGGAGGAAGGT
Put plainly: FP binding assay, DNA Seq11. As to conditions: Seq 11 TGGAGGAAGGT; 0.5 μM SMN-C2. Here is the method:
as §1
(§2) A 1:2 dilution series (8 points) of each oligonucleotide was prepared in 20-30 μL water to desired concentrations (i.e., 1-128 μM). […] For fluorescence polarization measurement, 20 μL of the above 1× working solution was transferred into a 384-well, black, F-bottom microplates (Greiner Bio-One) in duplicates or triplicates. The plate was equilibrated at room temperature for 5 min before being read using a microplate reader (SYNERGY H1, BioTek; Excitation/Emission=360/460 nm) at 25° C. […] The mixture was then transferred into a microplate (20 μL each well) in duplicates for fluorescence polarization readout. The experimental data were analyzed using Prism 8 software (Graphpad Software, San Diego, CA, USA).

In a further assay the target is RNA Seq13 UGAAGAAAGGU
Nature of the assay: FP binding assay, RNA Seq13. As to conditions: Seq 13 UGAAGAAAGGU; 0.5 μM SMN-C2. Here is the method: as §1, §2

The target of the next assay is DNA S4 […]. Nature of the assay: FP binding assay, 18-nt DNA S4. As to the method: as §1, §2
In the next assay the target is DNA S5 […]. Put plainly: FP binding assay, 18-nt DNA S5. As to the method: as §1, §2
For a further assay, the target named is DNA S10 […]. Nature of the assay: FP binding assay, 18-nt DNA S10. As to the method:
as §1, §2

The next assay concerns the target 5′-biotinylated RNA Seq4. Put plainly: Surface plasmon resonance (SPR) assay, RNA Seq4. Type of assay: binding. As to conditions: footnote b: SPR assay for RNA Seq4. As to the method: SPR experiments were performed on a Biacore T200 (GE Healthcare) instrument at 25° C. using streptavidin pre-coated SA sensor chips (GE Healthcare). The running buffer composed of 10 mM HEPES, 100 mM NaCl, 0.05% Tween 20 (w/v), 5 mM EDTA, 0.1% (v/v) DMSO at pH 6.8 was prepared freshly, filtered through the […] PVDF membrane prior to use. 5′-biotinylated RNA Seq4 was purchased from GenScript and dissolved in nuclease-free water to a concentration of 100 μM. For immobilization of the biotinylated RNA, the sensor chip was firstly conditioned with 3 consecutive 1 min injections of high salt solution (50 mM NaOH, 1M NaCl) at a flow rate of […]. Next, the biotinylated RNA was diluted 1000× in running buffer (100 nM) and applied over the streptavidin sensor chip surface at a flow rate of 10 μL/min to achieve immobilization level of about 800 RU. Finally, alkyne-PEG-biotin (50 μM in running buffer) was injected (1 min, […]) to block remaining streptavidin surface binding sites. The kinetics analysis was performed following the BiaControl Software Wizard Kinetics protocol. […] All monitored resonance signals were subtracted with signals from a non-binding reference channel. Kinetic values (Kd, ka, kd) were calculated using the BiaEvaluation Software Binding Affinity protocol with 1:1 fitting. […]
(SPR reads the build-up and loss of mass on a sensor chip optically.)

Assay [1] deals with COVID RNA (SARS-CoV-2 RNA SL5 per FIG. 8). Nature of the assay: FP binding, Kd for COVID RNA. To be noted: Table 3.

For the compound `CCN1CCN(c2ccc3cc(-c4cn5cc(C)nc(C)c5n4)c(=O)oc3c2)C[C@@H]1C` [SMN-C2, (S)-3-(6,8-dimethylimidazo[1,2-a]pyrazin-2-yl)-7-(4-ethyl-3-methylpiperazin-1-yl)-2H-chromen-2-one], the Kd on RNA Seq6 UGAAGGAAGGU (Seq 6 UGAAGGAAGGU, 0.5 μM SMN-C2, range = 95% CI, read-out: RNA Kd) is 17.5 ± 2.2 µM; at DNA Seq11 TGGAGGAAGGT it was 57.3 ± 20 µM; on RNA Seq13 UGAAGAAAGGU it was over 100 µM; at DNA S4 […] it was over 50 µM; at DNA S5 […], 42.3 ± 4.2 µM; at DNA S10 […], 26.4 ± 2.2 µM. The results for the Kd (on 5′-biotinylated RNA Seq4; in assay [1]) were 5.4 µM and 1600 ± 400 nM, respectively. For the same compound, the “binding affinity (Kd) to RNA Seq6 relative to RNA Seq18, fold stronger” value in the assay with RNA Seq6 UGAAGGAAGGU (binding site 2 vs binding site 1) worked out at 3.4 fold.

The values are drawn from patent US20250368651A1 (priority 2022, published 2025).
